# Reference: patent publication US20090060984A1, “ANIONIC SURFACTANTS LETHAL TO GRAM-POSITIVE BACTERIA” (priority 2007, published 2009)
# Where “and” joins values, the source holds several entries; their conditions need not be identical. Equal entries are not always repeated. Where two headings read alike, the source gives them in different places.
# What was measured:
# E. coli = assay type: cell-based, Escherichia coli; conditions: 24 h contact time
# Method: Escherichia coli ATCC 11229 (Culti-loops, Remel Europe, Dartford, Kent, UK) and Pseudomonas aeruginosa ATCC 15442 (Cuti-loops, Remel Europe, Dartford, Kent, UK) were selected as model Gram-negative organisms for the challenge testing of the antimicrobial coatings. Each bacterial strain was streaked for isolated colonies on Tryptic Soy Agar (TSA) plates (Difco, Becton Dickinson, Sparks, Md., U.S.A.) and incubated at 37° C. for 12 to 18 hours. Broth cultures were prepared by first picking 1-2 isolated colonies from TSA plates and inoculating 5 mL Tryptic Soy Broth (TSB; Difco, Becton Dickinson, Sparks, Md., U.S.A.) in a 16 mm test tube. This culture was grown in a shaking water bath at 150 RPM for 8 hours at 37° C. After the eight hours, 125 μL of this culture was added to 50 mL of TSB in a side-arm Klett flask and grown for approximately 8 hours in shaking water bath (150 RPM) at 37° C. The bacterial broths were grown to an A590 of 1.2-1.5, which correlated to approximately 10^9 CFU (colony forming units)/mL. 25 mL of this broth were transferred to a sterile 30 mL Oakridge tube and centrifuged at 12,000×g for 10 minutes at 4° C. (Sorval SS34 rotor) to pelletize the bacteria. The bacterial pellet was washed once and resuspended in 25 mL of phosphate buffer solution (PBS; BBL, FTA Hemaglutination Buffer, Becton Dickinson, Sparks, Md., U.S.A.). The suspension was diluted with PBS to achieve the target range of 10^5-10^6 CFU/mL and used to inoculate the slides containing antibacterial coatings.
# Xylene/methanol (5:1 by weight) is used to dissolve the silver surfactants to facilitate homogeneously mixing with the alkyd resin composition.
# A minus sign (−) denotes no growth, a plus sign (+) denotes confluent growth, and a capital P (P) denotes […].
# Xylene/methanol (5:1 by weight) is used to dissolve the silver surfactants to facilitate homogeneously mixing with the acrylic resin composition.
# The same laboratory experimental solvent based acrylic paint described in Example 34 is used to challenge E. coli by adding various levels of the invention silver anionic surfactants as described in Example 34.
# A commercially available 2K epoxy resin paint is obtained from a local paint store (Sherwin Williams High Solids Epoxy Tile Clad HS; Part A B62WC11; Part B B60VZ75, The Sherwin Williams Company) and the same silver anionic surfactants described in Example 35 are used to prepare test coatings on microscope slides containing various levels of silver ion. These surfactants are dissolved in xylene/methanol (5:1 by weight) to facilitate their quantitative addition to the coating mixture.
# Enterococcus fecalis = assay: Growth on surfactant/TSA agar plates; assay type: cell-based; also: test concentration or dose not given here
# Streptococcus bovis = assay: Growth on surfactant/TSA agar plates; assay type: cell-based; conditions: Streptococcus bovis strain EM12
# Streptococcus agalactiae = assay: Growth on surfactant/TSA agar plates; assay type: cell-based; conditions: Streptococcus agalactiae strain EM13
# Micrococcus luteus = assay: Growth on surfactant/TSA agar plates; assay type: cell-based; conditions: Micrococcus luteus strain EM17
# Streptococcus pyogenes = assay: Growth on surfactant/TSA agar plates; assay type: cell-based; conditions: Streptococcus pyogenes strain EM14; also: test concentration or dose not given here
# Streptococcus viridans = assay: Growth on surfactant/TSA agar plates; assay type: cell-based; conditions: Streptococcus viridans strain EM8
# Staphylococcus aureus = assay: Growth on surfactant/TSA agar plates; assay type: cell-based; also: test concentration or dose not given here
# [1] = tested on: Staphylococcus epidermidis; assay: Growth on surfactant/TSA agar plates; assay type: cell-based; conditions: Staphylococcus epidermidis strain EM3/ATCC12228
# Bacillus subtilis = assay: Growth on surfactant/TSA agar plates; assay type: cell-based; also: test concentration or dose not given here
# [2] = laboratory solvent based acrylic paint
# [3] = Enterococcus fecalis strain EM19 (first listing)
# [4] = Enterococcus fecalis strain EM19 (second listing)
# [5] = Staphylococcus aureus strain ATCC6538
# [6] = Staphylococcus aureus strain EM24/ATCC25923
# [7] = Bacillus subtilis strain ATCC33
compound,measurement,setting,value
"CCCCCCCCCCCCOS(=O)(=O)[O-].[Ag+] [AgDS, Silver dodecylsufate]",E. coli growth on coating,"E. coli; alkyd resin paint, 0.0012 weight % Ag in coating",+
same,E. coli growth on coating,"E. coli; alkyd resin paint, 0.003 weight % Ag in coating",+
same,E. coli growth on coating,"E. coli; alkyd resin paint, 0.006 weight % Ag in coating",+
same,E. coli growth on coating,"E. coli; alkyd resin paint, 0.012 weight % Ag in coating",+
same,E. coli growth on coating,"E. coli; alkyd resin paint, 0.03 weight % Ag in coating",−
same,E. coli growth on coating,"E. coli; alkyd resin paint, 0.06 weight % Ag in coating",−
same,E. coli growth on coating,"E. coli; alkyd resin paint, 0.12 weight % Ag in coating",−
same,E. coli growth on coating,"E. coli; commercial 2K epoxy paint, 0.0012 weight % Ag in coating",+
same,E. coli growth on coating,"E. coli; commercial 2K epoxy paint, 0.003 weight % Ag in coating",+
same,E. coli growth on coating,"E. coli; commercial 2K epoxy paint, 0.006 weight % Ag in coating",+
same,E. coli growth on coating,"E. coli; commercial 2K epoxy paint, 0.03 weight % Ag in coating",−
same,E. coli growth on coating,"E. coli; commercial 2K epoxy paint, 0.06 weight % Ag in coating",−
same,E. coli growth on coating,"E. coli; commercial 2K epoxy paint, 0.12 weight % Ag in coating",−
same,Silver level giving complete inhibition of growth,E. coli; commercial 2K epoxy paint,0.03 % w/w
same,Silver level partially effective,E. coli; commercial 2K epoxy paint,0.012 % w/w
same,E. coli growth on coating,"E. coli; commercial solvent borne acrylate paint, 0.0012 weight % Ag in coating",+
same,E. coli growth on coating,"E. coli; commercial solvent borne acrylate paint, 0.003 weight % Ag in coating",+
same,E. coli growth on coating,"E. coli; commercial solvent borne acrylate paint, 0.006 weight % Ag in coating",+
same,E. coli growth on coating,"E. coli; commercial solvent borne acrylate paint, 0.012 weight % Ag in coating",+
same,E. coli growth on coating,"E. coli; commercial solvent borne acrylate paint, 0.03 weight % Ag in coating",−
same,E. coli growth on coating,"E. coli; commercial solvent borne acrylate paint, 0.06 weight % Ag in coating",−
same,E. coli growth on coating,"E. coli; commercial solvent borne acrylate paint, 0.12 weight % Ag in coating",−
same,Silver level effective at preventing any growth,E. coli; commercial solvent borne acrylic paint,completely effective at this lower level
same,Silver level preventing any growth,E. coli; [2],0.03 % w/w
same,Silver level with partial inhibition,E. coli; [2],0.012%
same,E. coli growth on coating,"E. coli; laboratory solvent borne acrylate paint, 0.0012 weight % Ag in coating",+
same,E. coli growth on coating,"E. coli; laboratory solvent borne acrylate paint, 0.003 weight % Ag in coating",+
same,E. coli growth on coating,"E. coli; laboratory solvent borne acrylate paint, 0.006 weight % Ag in coating",+
same,E. coli growth on coating,"E. coli; laboratory solvent borne acrylate paint, 0.03 weight % Ag in coating",−
same,E. coli growth on coating,"E. coli; laboratory solvent borne acrylate paint, 0.06 weight % Ag in coating",−
same,E. coli growth on coating,"E. coli; laboratory solvent borne acrylate paint, 0.12 weight % Ag in coating",−
CCCCC(CC)COC(=O)CC(C(=O)OCC(CC)CCCC)S(=O)(=O)[O-].[Na+] (stereo not shown) [Compound S1],"No Growth(−)/Full Growth(+), replicate columns",Enterococcus fecalis; [3],−
same,"No Growth(−)/Full Growth(+), replicate columns",Enterococcus fecalis; [4],−
same,"No Growth(−)/Full Growth(+), replicate columns",Streptococcus bovis,−
same,"No Growth(−)/Full Growth(+), replicate columns",Streptococcus agalactiae,−
same,"No Growth(−)/Full Growth(+), replicate columns",Micrococcus luteus,−
same,"No Growth(−)/Full Growth(+), replicate columns",Streptococcus pyogenes,−
same,"No Growth(−)/Full Growth(+), replicate columns",Streptococcus viridans,−
same,"No Growth(−)/Full Growth(+), replicate columns",Staphylococcus aureus; [5],−
same,"No Growth(−)/Full Growth(+), replicate columns",Staphylococcus aureus; [6],−
same,"No Growth(−)/Full Growth(+), replicate columns",[1],−
same,"No Growth(−)/Full Growth(+), replicate columns",Bacillus subtilis; [7],−
same,"No Growth(−)/Full Growth(+), replicate columns",Bacillus subtilis; Bacillus subtilis strain EM27,−
CCCCC(CC)COP(=O)([O-])OCCC(CC)CCC.[Na+] (stereo not shown) [Compound S2],"No Growth(−)/Full Growth(+), replicate columns",Enterococcus fecalis; [3],−
same,"No Growth(−)/Full Growth(+), replicate columns",Enterococcus fecalis; [4],−
same,"No Growth(−)/Full Growth(+), replicate columns",Streptococcus bovis,−
same,"No Growth(−)/Full Growth(+), replicate columns",Streptococcus agalactiae,−
same,"No Growth(−)/Full Growth(+), replicate columns",Micrococcus luteus,−
same,"No Growth(−)/Full Growth(+), replicate columns",Streptococcus pyogenes,−
same,"No Growth(−)/Full Growth(+), replicate columns",Streptococcus viridans,−
same,"No Growth(−)/Full Growth(+), replicate columns",Staphylococcus aureus; [5],−
same,"No Growth(−)/Full Growth(+), replicate columns",Staphylococcus aureus; [6],−
same,"No Growth(−)/Full Growth(+), replicate columns",[1],−
same,"No Growth(−)/Full Growth(+), replicate columns",Bacillus subtilis; [7],−
same,"No Growth(−)/Full Growth(+), replicate columns",Bacillus subtilis; Bacillus subtilis strain EM27,−
CCCCCCCCCCCCCCCCCCNC(=O)CC(C(=O)[O-])S(=O)(=O)[O-].[Na+].[Na+] (stereo not shown) [Compound S3],"No Growth(−)/Full Growth(+), replicate columns",Enterococcus fecalis; [3],−
same,"No Growth(−)/Full Growth(+), replicate columns",Enterococcus fecalis; [4],+
same,"No Growth(−)/Full Growth(+), replicate columns",Streptococcus bovis,−
same,"No Growth(−)/Full Growth(+), replicate columns",Streptococcus agalactiae,−
same,"No Growth(−)/Full Growth(+), replicate columns",Micrococcus luteus,−
same,"No Growth(−)/Full Growth(+), replicate columns",Streptococcus pyogenes,−
same,"No Growth(−)/Full Growth(+), replicate columns",Streptococcus viridans,+
same,"No Growth(−)/Full Growth(+), replicate columns",Staphylococcus aureus; [5],−
same,"No Growth(−)/Full Growth(+), replicate columns",Staphylococcus aureus; [6],−
same,"No Growth(−)/Full Growth(+), replicate columns",[1],−
same,"No Growth(−)/Full Growth(+), replicate columns",Bacillus subtilis; [7],−
same,"No Growth(−)/Full Growth(+), replicate columns",Bacillus subtilis; Bacillus subtilis strain EM27,−
CC(C)CC(C)OC(=O)CC(C(=O)OC(C)CC(C)C)S(=O)(=O)[O-].[Na+] (stereo not shown) [Compound S4],"No Growth(−)/Full Growth(+), replicate columns",Enterococcus fecalis; [3],+
same,"No Growth(−)/Full Growth(+), replicate columns",Enterococcus fecalis; [4],+
same,"No Growth(−)/Full Growth(+), replicate columns",Streptococcus bovis,−
same,"No Growth(−)/Full Growth(+), replicate columns",Streptococcus agalactiae,− and +
same,"No Growth(−)/Full Growth(+), replicate columns",Micrococcus luteus,− (2×) and +
same,"No Growth(−)/Full Growth(+), replicate columns",Streptococcus pyogenes,−
same,"No Growth(−)/Full Growth(+), replicate columns",Streptococcus viridans,+
same,"No Growth(−)/Full Growth(+), replicate columns",Staphylococcus aureus; [5],+
same,"No Growth(−)/Full Growth(+), replicate columns",Staphylococcus aureus; [6],+
same,"No Growth(−)/Full Growth(+), replicate columns",[1],+
same,"No Growth(−)/Full Growth(+), replicate columns",Bacillus subtilis; [7],− and +
same,"No Growth(−)/Full Growth(+), replicate columns",Bacillus subtilis; Bacillus subtilis strain EM27,+
O=C(CC(C(=O)OC1CCCCC1)S(=O)(=O)[O-])OC1CCCCC1.[Na+] (stereo not shown) [Compound S5],"No Growth(−)/Full Growth(+), replicate columns",Enterococcus fecalis; [3],+
same,"No Growth(−)/Full Growth(+), replicate columns",Enterococcus fecalis; [4],+
same,"No Growth(−)/Full Growth(+), replicate columns",Streptococcus bovis,−
same,"No Growth(−)/Full Growth(+), replicate columns",Streptococcus agalactiae,− (2×) and +
same,"No Growth(−)/Full Growth(+), replicate columns",Micrococcus luteus,+ and − (2×)
same,"No Growth(−)/Full Growth(+), replicate columns",Streptococcus pyogenes,−
same,"No Growth(−)/Full Growth(+), replicate columns",Streptococcus viridans,+
same,"No Growth(−)/Full Growth(+), replicate columns",Staphylococcus aureus; [5],+
same,"No Growth(−)/Full Growth(+), replicate columns",Staphylococcus aureus; [6],+
same,"No Growth(−)/Full Growth(+), replicate columns",[1],+
same,"No Growth(−)/Full Growth(+), replicate columns",Bacillus subtilis; [7],−
same,"No Growth(−)/Full Growth(+), replicate columns",Bacillus subtilis; Bacillus subtilis strain EM27,− and +
CCCCCCCCCCCCCOC(=O)CC(C(=O)OCCCCCCCCCCCCC)S(=O)(=O)[O-].[Na+] (stereo not shown) [Compound S6],"No Growth(−)/Full Growth(+), replicate columns",Enterococcus fecalis; [3],+
same,"No Growth(−)/Full Growth(+), replicate columns",Enterococcus fecalis; [4],+
same,"No Growth(−)/Full Growth(+), replicate columns",Streptococcus bovis,−
same,"No Growth(−)/Full Growth(+), replicate columns",Streptococcus agalactiae,− (2×) and +
same,"No Growth(−)/Full Growth(+), replicate columns",Micrococcus luteus,+
same,"No Growth(−)/Full Growth(+), replicate columns",Streptococcus pyogenes,−
same,"No Growth(−)/Full Growth(+), replicate columns",Streptococcus viridans,+
same,"No Growth(−)/Full Growth(+), replicate columns",Staphylococcus aureus; [5],+
same,"No Growth(−)/Full Growth(+), replicate columns",Staphylococcus aureus; [6],+
same,"No Growth(−)/Full Growth(+), replicate columns",[1],+
same,"No Growth(−)/Full Growth(+), replicate columns",Bacillus subtilis; [7],+ (2×) and −
same,"No Growth(−)/Full Growth(+), replicate columns",Bacillus subtilis; Bacillus subtilis strain EM27,− (2×) and +
